Patent US20120202751A1, “METHODS OF MONITORING ENDOPLASMIC RETICULUM (ER) STRESS RESPONSE” (The Board of trustees of the Leland Stanford Junior …, priority 2009, published 2012)

How the values were obtained:
XBP1-luc activity [1] = assay: In vivo bioluminescence of primary tumors in Tag-Luc mice
Protocol: Mice were injected with fluorescently-labeled 2-DG or RGD peptide or dye alone and imaged 24 hours later for in vivo bioluminescence and 2-DG, RGD peptide, and dye uptake. Dark arrows indicate tumors with high in vivo bioluminescence and light arrows indicate tumors with low in vivo bioluminescence. (B) is a plot of 2-DG signal against in vivo bioluminescence for the mice imaged in FIG. 4(A). (C) is a bar graph of in vivo bioluminescence in autochthonous tumors after 24 hours of glucose deprivation. (D) Left panel: are photographs with overlays of in vivo bioluminescence of Tag-Luc mice at 0 and 12 hours after treatment with 2 mg of 2-DG or vehicle i.p. Arrows indicate palpable tumors. […]
(B) is a bar graph of in vitro XBP1-luc activity in preparations of spontaneous primary tumors from Tag and Tag-Luc mice cultured under normoxic or hypoxic conditions for 48 h. […] Bioluminescence was measured after 32 hours. […] Luciferase activity was measured after 24 hours.
In vivo bioluminescence, which corresponds to XBP1-Luc activity, was detected noninvasively using the IVIS imaging system (Caliper LifeSciences, Hopkinton, Mass.). […] Image analysis and quantification was performed using Living Image software (Caliper LifeSciences, Hopkinton, Mass.). All images were analyzed with a binning of 10. […]

XBP1-Luc construct = assay: XBP1-luc reporter luciferase activity in HT1080 cells; assay type: cell-based, human; details: for UPR reporter activity, XBP1-luc construct: HT1080 cells, luciferase activity measured after 24 hours
Protocol: (§1) FIG. 1 (A) Upper Panel: is a schematic representation of the XBP1-luc reporter construct. Lower panel: is a bar graph of in vitro luciferase activity from different reporter constructs in response to different stresses. HT 1080 cells expressing either a XBP1-luc construct, or an ATF4 or CMV-driven luciferase gene were cultured in 10 μg/ml tunicamycin, glucose depletion, or severe hypoxia (<0.02% O2) for 24 hours to induce ER stress. (B) is a graphical representation of the incidence of breast carcinomas in Tag mice and Tag-Luc double transgenic mice. […] Tumor areas are outlined. Lower panel: are overlays of in vivo bioluminescence on the pictures in the middle panel. (D) is a series of fluorescent micrographs of tissue sections from tumors from Tag-Luc and Tag mice. Frozen sections were stained with antiluciferase and anti-XBP1 (top left two panels), anti-luciferase and anti-BiP (bottom left two panels), anti-luciferase and anti-eIF2α (top right two panels), or the control secondary antibodies (bottom right two panels).
(B) is a bar graph of in vitro XBP1-luc activity in preparations of spontaneous primary tumors from Tag and Tag-Luc mice cultured under normoxic or hypoxic conditions for 48 h. (C) Left panel: are photographs with overlays of in vivo bioluminescence in Tag-Luc mice treated with vehicle or 50 mg/kg DCA (dichloroacetic acid) b.i.d. for 2 days. Bioluminescence was measured after 32 hours. Right panel: is a bar graph of in vivo bioluminescence as shown in the left panel of FIG. 5C and is the average of two experiments. […] Luciferase activity was measured after 24 hours.
The first 208 amino acids of the unspliced human XBP1-1 was amplified by PCR and subcloned into pEGFP-N1 (Clontech, Mountain View, Calif.). This plasmid was subsequently digested with Bam HI and Not Ito remove the EGFP and a PCR-generated firefly luciferase gene was cloned downstream of the XBP1-1 gene such that the luciferase gene was in frame only in the “spliced” reading frame. […]

ATF4-Luc = assay: ATF4-luc UPR reporter luciferase activity in HT1080 cells; assay type: cell-based, human; details: for UPR reporter activity, ATF4-luc construct: luciferase activity measured after 24 hours
Protocol: as §1
(B) is a bar graph of in vitro XBP1-luc activity in preparations of spontaneous primary tumors from Tag and Tag-Luc mice cultured under normoxic or hypoxic conditions for 48 h. (C) Left panel: are photographs with overlays of in vivo bioluminescence in Tag-Luc mice treated with vehicle or 50 mg/kg DCA (dichloroacetic acid) b.i.d. for 2 days. Bioluminescence was measured after 32 hours. Right panel: is a bar graph of in vivo bioluminescence as shown in the left panel of FIG. 5C and is the average of two experiments. (D) is a bar graph of in vitro luciferase activity in HT1080 cells containing CMV, XBP1, or ATF4-luciferase reporters after treatment with 2-DG, DCA, or glucose deprivation. Luciferase activity was measured after 24 hours.
This reporter construct was tested in vitro. The human fibrosarcoma cell line HT1080 was obtained from ATCC (Manassas, Va.). Cells were maintained at 37° C. with 5% CO2 in DMEM supplemented with 10% FBS and 1% penicillin-streptomycin antibiotics. HT1080 cells (FIG. 1A, lower panel) were stably transfected with the XBP1-Luc construct. […]

XBP1-luc activity [2] = assay: In vitro luciferase activity of cultured Hi and Lo primary tumors from Tag-Luc mice; assay type: cell-based; details: primary Tag-Luc tumors after 7-10 days of in vitro culture
Protocol: FIG. 3 (A) is a bar graph of in vitro luciferase activity of primary tumors from Tag-Luc mice with “Hi” or “Lo” in vivo bioluminesence or tumors from Tag mice after 7-10 days of in vitro culture. Luciferase activity was also measured following tunicamycin treatment. (B) Left panels: are photographs of Tag-Luc mice bearing tumors with synchronous Hi (dark outline in the upper panel) and Lo (light outlines) in vivo bioluminescence (overlays, lower panel). Right panels: are photographs, including bioluminescent overlay, of transplanted Hi (dark circle/arrow; upper left flank) and Lo (light circles/arrows) primary tumors from Tag-Luc mice 14 days after subcutaneously transplantation into four separate quadrants on the dorsal surface of syngeneic FVB mice. (C) is a bar graph of in vivo bioluminesence of primary and transplanted Hi and Lo tumors. Results are the average of four independent experiments.
Tumors isolated ex vivo from Tag-Luc transgenic mice had 14.5-fold greater luciferase activity than tumors isolated from control Tag transgenic mice (FIG. 2A, middle panel; p=0.0001; n=16 for Tag mice, n=33 for Tag-Luc mice). […] Luciferase activity was detected on a Monolight 2010 (Analytic Luminescence Laboratory, San Diego, Calif.).

Row | Molecule | increase in tumor bioluminescence compared to control mice (XBP1-luc activity [1]; Tag-Luc mice, 2 mg 2-DG i.p., 12 hours, p=0.01) [fold] | UPR reporter activity, XBP1-luc construct (XBP1-Luc construct) | UPR reporter activity, ATF4-luc construct (ATF4-Luc) | increase in bioluminescent signal of primary Tag-Luc tumors (XBP1-luc activity [1]; repeated injections, 50 mg/kg b.i.d. for 2 days, measured after 32 hours) [fold] | XBP1-luc activity in Hi and Lo tumors (XBP1-luc activity [2]) | luciferase activity, XBP1-Luc cells (XBP1-Luc construct; HT1080 cells stably transfected with XBP1-Luc, 10 μg/ml tunicamycin, 24 hours, compared to CMV-Luc control cells) | ATF4-Luc reporter induction (ATF4-Luc; 10 μg/ml tunicamycin, 24 hours)
1 | O=CC[C@@H](O)[C@H](O)[C@H](O)CO [Compound 2-DG, 2-deoxy-d-glucose] | 1.78 | did induce UPR reporter activity | did induce UPR reporter activity |  |  |  | 
2 | O=C(O)C(Cl)Cl [DCA, dichloroacetic acid] |  | did not induce UPR reporter activity | did not induce UPR reporter activity | 2.0 |  |  | 
3 | tunicamycin |  |  |  |  | increased | strongly induced luciferase activity | also induced
